How the values were obtained:
[1] = target: T1, Porcine ventricle myofibrils (ventricular myosin ATPase) (Sus scrofa, UniProt P79293); assay: Myofibril ATPase assay, porcine ventricle myofibrils; format: biochemical, porcine (Yucatan minipigs)
T1 construct: Myofibrils from porcine cardiac muscle was isolated from the left ventricle of Yucatan minipigs; tissue Exemplar Genetics; host or cells: left ventricle of Yucatan minipigs, myofibrils prepared in house
Outline: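 In a coupled enzyme format, ADP from myofibril ATPase drives NADH oxidation, monitored kinetically at 340 nm for 75 min using minipig ventricle myofibrils. Effective concentrations giving 25% loss or gain of activity relative to vehicle were calculated from 4-parameter fits.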

[2] = test system: Rabbit Psoas myofibrils (skeletal myosin ATPase); assay: Myofibril ATPase assay, rabbit psoas (skeletal) myofibrils; format: biochemical
Outline: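 Rabbit psoas skeletal myofibrils in PIPES/CaCl2/EGTA pCa buffer, pH 7.0. ATPase rate followed by PK-LDH-coupled NADH loss at 340 nm, read every 1.5–2 min for 75 min. Slopes normalized to vehicle (100%) and fitted to a 4-parameter logistic; values are Y75 (25% inhibition) or Y125 (25% activation) concentrations.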

[3] = test system: Porcine atria myofibrils (atrial myosin ATPase); assay: Myofibril ATPase assay, porcine atria myofibrils; format: biochemical
Outline: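 Coupled PK-LDH reaction links ADP from myosin ATPase to NADH loss, read at 340 nm every 1.5-2 min for 75 min. Slopes (mAU/min) normalized to vehicle-only wells (100%) and fit to a 4-parameter logistic; Y75 is the concentration cutting activity by 25%, Y125 is reported for activators.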

[4] = Y75 value (no ‡ mark), porcine ventricle myofibrils
[5] = Y75 value (no ‡ mark), rabbit psoas myofibrils
[6] = Y75 value (no ‡ mark), porcine atria myofibrils
[7] = porcine ventricle myofibrils, Y75 value
[8] = rabbit psoas myofibrils, Y75 value
[9] = porcine atria myofibrils, Y75 value (75% activity relative to no compound)
[10] = ‡ Y125 value, not a Y75 value (125% activity relative to no compound), porcine ventricle myofibrils
[11] = ‡ Y125 value, not a Y75 value (125% activity relative to no compound), rabbit psoas myofibrils

T1 sequence (P79293 whole entry): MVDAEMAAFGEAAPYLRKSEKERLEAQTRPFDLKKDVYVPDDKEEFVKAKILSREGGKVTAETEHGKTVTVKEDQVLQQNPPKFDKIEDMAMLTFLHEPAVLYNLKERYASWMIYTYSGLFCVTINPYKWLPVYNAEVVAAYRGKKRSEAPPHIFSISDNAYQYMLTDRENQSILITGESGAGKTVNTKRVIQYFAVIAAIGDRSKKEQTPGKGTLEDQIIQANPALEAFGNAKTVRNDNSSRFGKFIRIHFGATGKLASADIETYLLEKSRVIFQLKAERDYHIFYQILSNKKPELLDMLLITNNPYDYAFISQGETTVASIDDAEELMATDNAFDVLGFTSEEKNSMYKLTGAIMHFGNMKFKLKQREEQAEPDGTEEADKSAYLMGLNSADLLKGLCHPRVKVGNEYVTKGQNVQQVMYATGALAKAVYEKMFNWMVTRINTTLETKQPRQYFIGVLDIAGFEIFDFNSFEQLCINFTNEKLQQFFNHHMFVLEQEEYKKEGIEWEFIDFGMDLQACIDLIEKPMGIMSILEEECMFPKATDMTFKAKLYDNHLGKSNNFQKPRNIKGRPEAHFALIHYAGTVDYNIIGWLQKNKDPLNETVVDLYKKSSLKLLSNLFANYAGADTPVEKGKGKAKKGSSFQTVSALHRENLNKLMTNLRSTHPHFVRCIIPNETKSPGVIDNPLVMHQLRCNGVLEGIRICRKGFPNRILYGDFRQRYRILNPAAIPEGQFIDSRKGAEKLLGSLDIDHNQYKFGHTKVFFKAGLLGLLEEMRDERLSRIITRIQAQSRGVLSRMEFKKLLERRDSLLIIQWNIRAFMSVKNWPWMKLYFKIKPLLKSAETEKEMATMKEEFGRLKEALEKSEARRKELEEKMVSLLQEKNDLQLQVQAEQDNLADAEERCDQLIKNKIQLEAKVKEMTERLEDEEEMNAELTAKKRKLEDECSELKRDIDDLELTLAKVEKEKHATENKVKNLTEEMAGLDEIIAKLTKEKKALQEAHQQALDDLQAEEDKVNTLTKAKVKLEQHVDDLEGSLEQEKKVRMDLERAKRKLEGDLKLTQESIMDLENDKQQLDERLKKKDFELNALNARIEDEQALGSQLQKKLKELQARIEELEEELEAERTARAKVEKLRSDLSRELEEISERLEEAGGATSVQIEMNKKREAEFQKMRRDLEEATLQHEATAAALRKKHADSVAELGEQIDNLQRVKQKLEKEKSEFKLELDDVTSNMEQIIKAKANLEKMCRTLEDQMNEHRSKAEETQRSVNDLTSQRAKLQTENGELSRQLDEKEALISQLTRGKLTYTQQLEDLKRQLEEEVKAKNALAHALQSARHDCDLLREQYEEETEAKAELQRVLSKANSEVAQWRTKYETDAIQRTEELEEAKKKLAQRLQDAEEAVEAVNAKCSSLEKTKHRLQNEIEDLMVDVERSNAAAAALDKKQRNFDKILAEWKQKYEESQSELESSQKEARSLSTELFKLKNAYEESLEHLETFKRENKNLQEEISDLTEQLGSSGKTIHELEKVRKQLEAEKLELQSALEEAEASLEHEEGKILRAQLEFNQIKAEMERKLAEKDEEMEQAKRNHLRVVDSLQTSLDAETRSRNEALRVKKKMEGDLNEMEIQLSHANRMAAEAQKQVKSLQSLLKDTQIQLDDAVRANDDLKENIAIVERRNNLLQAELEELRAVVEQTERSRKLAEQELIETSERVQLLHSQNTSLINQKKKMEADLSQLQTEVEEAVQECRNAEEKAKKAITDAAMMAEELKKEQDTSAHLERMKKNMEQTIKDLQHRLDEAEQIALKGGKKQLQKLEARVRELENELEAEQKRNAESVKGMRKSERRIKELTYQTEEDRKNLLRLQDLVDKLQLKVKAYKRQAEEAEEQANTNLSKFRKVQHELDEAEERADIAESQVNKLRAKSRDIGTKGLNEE

SMILES: Cc1c(C(F)(F)C(=O)N[C@@H](C)c2ncc(C#N)cc2F)c(=O)[nH]c2ccc(F)cc12 (single isomer, unassigned) [compound 2607]
- Ventricular EC25 [1, 4]: 0.17 µM
- Skeletal EC25 [2, 5]: 0.04 µM
- Atrial EC25 [3, 6]: 0.07 µM

SMILES: C[C@@H](NC(=O)Cc1c(C#N)c2cc(F)ccc2[nH]c1=O)c1ncc(C#N)cc1F [compound 1094]
- Ventricular EC25 [1, 4]: 100.00 µM
- Skeletal EC25 [2, 5]: 2.26 µM
- Atrial EC25 [3, 6]: 100.00 µM

SMILES: Cc1c(C(F)(F)C(=O)N[C@H](C)c2ncc(C#N)cc2F)c(=O)[nH]c2ccc(F)c(C#N)c12 (single isomer, unassigned) [compound 4835]
- Ventricular EC25 [1, 4]: 0.77 µM
- Skeletal EC25 [2, 5]: 0.11 µM
- Atrial EC25 [3, 6]: 0.18 µM

SMILES: C[C@@H](NC(=O)Cc1c(Cl)c2cnccc2[nH]c1=O)c1ccc(C#N)cn1 [compound 453]
- Ventricular EC25 [1, 7]: 100.00 µM
- Skeletal EC25 [2, 8]: 9.12 µM
- Atrial EC25 [3, 9]: 8.79 µM

SMILES: Cc1c(C(F)(F)C(=O)N[C@H](C)c2ncc(C#N)cc2F)c(=O)[nH]c2cccc(C#N)c12 (single isomer, unassigned) [compound 2501]
- Ventricular EC25 [1, 4]: 0.45 µM
- Skeletal EC25 [2, 5]: 0.15 µM
- Atrial EC25 [3, 6]: 0.17 µM

SMILES: Cc1c(C2(C(=O)N[C@@H](C)c3nccc(C#N)n3)CC2)c(=O)[nH]c2ccc(F)c(F)c12 (single isomer, unassigned) [compound 2510]
- Ventricular EC25 [1, 10]: 77.57‡ μM
- Skeletal EC25 [2, 11]: 85.63‡ μM
- Atrial EC25 [3, 6]: 7.78 µM

SMILES: Cc1c(CC(=O)N[C@@H](C)c2ccc(F)cc2F)c(=O)[nH]c2ccc(F)c(Cl)c12 [compound 85]
- Ventricular EC25 [1, 4]: 0.07 µM
- Skeletal EC25 [2, 5]: 0.02 µM
- Atrial EC25 [3, 6]: 0.03 µM

SMILES: C[C@H](NC(=O)Cc1cc2nc(Cl)ncc2[nH]c1=O)c1ccc(F)cc1F [compound 390]
- Ventricular EC25 [1, 7]: 44.80 µM
- Skeletal EC25 [2, 8]: 7.06 µM
- Atrial EC25 [3, 9]: 100.00 µM

SMILES: Cc1c(CC(=O)N[C@H](C)c2ccc(C#N)nn2)c(=O)[nH]c2ccc(F)c(F)c12 [compound 1133]
- Ventricular EC25 [1, 4]: 0.14 µM
- Skeletal EC25 [2, 5]: 0.04 µM
- Atrial EC25 [3, 6]: 0.09 µM

SMILES: Cc1nc(C#N)cnc1[C@@H](C)NC(=O)Cc1c(C)c2c(C)nccc2[nH]c1=O [compound 491]
- Ventricular EC25 [1, 7]: 11.59 µM
- Skeletal EC25 [2, 8]: 7.59 µM
- Atrial EC25 [3, 9]: 1.57 µM

SMILES: Cc1cc([C@@H](C)NC(=O)Cc2c(C)c3cc(F)ccc3[nH]c2=O)ncc1F [compound 1060]
- Ventricular EC25 [1, 4]: 100.00 µM
- Skeletal EC25 [2, 5]: 100.00 µM
- Atrial EC25 [3, 6]: 13.11 µM

SMILES: Cc1nccc2[nH]c(=O)c(CC(=O)N[C@@H](C)c3ccc(F)cc3F)c(C)c12 [compound 433]
- Ventricular EC25 [1, 7]: 0.64 µM
- Skeletal EC25 [2, 8]: 0.03 µM
- Atrial EC25 [3, 9]: 0.15 µM

SMILES: C[C@H](NC(=O)Cc1c(C2CC2)c2c(F)cccc2[nH]c1=O)c1ncc(C#N)cc1F [compound 1144]
- Ventricular EC25 [1, 4]: 0.84 µM
- Skeletal EC25 [2, 5]: 0.09 µM
- Atrial EC25 [3, 6]: 0.29 µM

SMILES: COc1ccc([C@H](C)NC(=O)Cc2c(C)c3c(C)nccc3[nH]c2=O)cn1 (single isomer, unassigned) [compound 291]
- Ventricular EC25 [1, 7]: 100.00 µM
- Skeletal EC25 [2, 8]: 100.00 µM
- Atrial EC25 [3, 9]: 100.00 µM

SMILES: Cc1nccc2[nH]c(=O)c(CC(=O)N[C@@H](C)c3ccc(F)cc3F)c(C#N)c12 [compound 159]
- Ventricular EC25 [1, 7]: 6.35 µM
- Skeletal EC25 [2, 8]: 0.11 µM
- Atrial EC25 [3, 9]: 1.17 µM

SMILES: C[C@H](NC(=O)Cc1c(C(F)(F)F)c2c(C3CC3)nccc2[nH]c1=O)c1ncc(C#N)cn1 (single isomer, unassigned) [compound 3002]
- Ventricular EC25 [1, 7]: 100.00 µM
- Skeletal EC25 [2, 8]: 100.00 µM
- Atrial EC25 [3, 9]: 100.00 µM

SMILES: CC(NC(=O)Cc1cc2cc(F)ccc2[nH]c1=O)c1cc(C#N)c(F)s1 (stereo not drawn) [compound 4002]
- Ventricular EC25 ([1]; Y75 value: concentration required to reduce myosin ATP-ase activity by 25%, Porcine Ventricle Prep pCa 25 GEOM_MEAN): 100.00 µM
- Skeletal EC25 ([2]; Y75 value: concentration required to reduce myosin ATP-ase activity by 25%, Rabbit Psoas Prep pCa 25 GEOM_MEAN): 4.10 µM
- Atrial EC25 ([3]; Y75 value: concentration required to reduce myosin ATP-ase activity by 25%, Porcine Atria Prep pCa 25 GEOM_MEAN): 1.60 µM

SMILES: N#Cc1cnc2c(c1)CC[C@@H]2NC(=O)Cc1cc2c(F)c(F)ccc2[nH]c1=O (single isomer, unassigned) [compound 8]
- Ventricular EC25 [1, 4]: 100.00 µM
- Skeletal EC25 [2, 5]: 100.00 µM
- Atrial EC25 [3, 6]: 100.00 µM

SMILES: C[C@H](NC(=O)Cc1cc2cc(O)ccc2[nH]c1=O)c1ccc(F)cc1F [compound 125]
- Ventricular EC25 [1, 4]: 20.89 µM
- Skeletal EC25 [2, 5]: 25.67 µM
- Atrial EC25 [3, 6]: 64.80 µM

SMILES: Cc1c(C(F)(F)C(=O)NC(C)c2cccc(C#N)n2)c(=O)[nH]c2ccc(F)c(F)c12 (single isomer, unassigned) [Compound 2587]
- Ventricular EC25 [1, 4]: 100.00 µM
- Skeletal EC25 [2, 5]: 5.65 µM
- Atrial EC25 [3, 6]: 5.60 µM

SMILES: Cc1cc([C@@H](C)NC(=O)Cc2c(O)c3c(C)c(F)ccc3[nH]c2=O)ncc1F [compound 1116]
- Ventricular EC25 [1, 4]: 100.00 µM
- Skeletal EC25 [2, 5]: 100.00 µM
- Atrial EC25 [3, 6]: 100.00 µM

SMILES: Cc1c(CC(=O)N[C@@H](C)c2ncc(C#N)cc2F)c(=O)[nH]c2ccc(F)c(C(F)(F)F)c12 [compound 22]
- Ventricular EC25 [1, 4]: 0.02 µM
- Skeletal EC25 [2, 5]: 0.00 µM
- Atrial EC25 [3, 6]: 0.02 µM

SMILES: Cc1c(C2(C(=O)N[C@H](C)c3cc(C#N)ccn3)CC2)c(=O)[nH]c2ccc(F)c(F)c12 (single isomer, unassigned) [compound 2539]
- Ventricular EC25 [1, 4]: 100.00 µM
- Skeletal EC25 [2, 5]: 100.00 µM
- Atrial EC25 [3, 6]: 2.76 µM

SMILES: Cc1nccc2[nH]c(=O)c(CC(=O)N[C@@H]3COc4cc(F)cc(F)c43)c(C)c12 (single isomer, unassigned) [compound 288]
- Ventricular EC25 [1, 7]: 0.27 µM
- Skeletal EC25 [2, 8]: 0.02 µM
- Atrial EC25 [3, 9]: 0.08 µM

SMILES: C[C@H](NC(=O)C(F)(F)c1cc2cc(F)ccc2[nH]c1=O)c1cccc(C#N)n1 (single isomer, unassigned) [compound 2582]
- Ventricular EC25 [1, 10]: 68.39‡ μM
- Skeletal EC25 [2, 11]: 75.10‡ μM
- Atrial EC25 ([3]; ‡ Y125 value, not a Y75 value (125% activity relative to no compound), porcine atria myofibrils): 100.00‡ μM

SMILES: COc1ccc([C@@H](C)NC(=O)Cc2c(C)c3c(C)nccc3[nH]c2=O)cc1 (single isomer, unassigned) [compound 286]
- Ventricular EC25 [1, 7]: 100.00 µM
- Skeletal EC25 [2, 8]: 8.58 µM
- Atrial EC25 [3, 9]: 45.61 µM

SMILES: Cc1c(C2(C(=O)N[C@@H](C)c3ncc(C#N)cc3F)CC2)c(=O)[nH]c2cccc(C#N)c12 (single isomer, unassigned) [compound 2542]
- Ventricular EC25 [1, 4]: 0.40 µM
- Skeletal EC25 [2, 5]: 0.32 µM
- Atrial EC25 [3, 6]: 0.24 µM

SMILES: Cc1nccc2[nH]c(=O)c(CC(=O)N[C@@H]3c4c(F)cc(F)cc4OC3(C)C)c(C)c12 (single isomer, unassigned) [compound 190]
- Ventricular EC25 [1, 7]: 45.62 µM
- Skeletal EC25 [2, 8]: 100.00 µM
- Atrial EC25 [3, 9]: 8.11 µM

SMILES: Cc1cc(F)cnc1[C@@H](C)NC(=O)C1(c2cc3c(F)c(F)ccc3[nH]c2=O)CC1 (single isomer, unassigned) [compound 4805]
- Ventricular EC25 [1, 4]: 100.00 µM
- Skeletal EC25 [2, 5]: 1.91 µM
- Atrial EC25 [3, 6]: 1.66 µM

SMILES: Cc1c(CC(=O)N[C@@H](c2ccc(F)cc2F)C(C)(C)O)c(=O)[nH]c2ccnc(C#N)c12 (single isomer, unassigned) [compound 279]
- Ventricular EC25 [1, 7]: 100.00 µM
- Skeletal EC25 [2, 8]: 1.29 µM
- Atrial EC25 [3, 9]: 78.18 µM

SMILES: Cc1nccc2[nH]c(=O)c([C@H](C)C(=O)N[C@@H](C)c3ccc(C#N)cc3F)c(C)c12 (single isomer, unassigned) [compound 196]
- Ventricular EC25 [1, 7]: 4.23 µM
- Skeletal EC25 [2, 8]: 0.18 µM
- Atrial EC25 [3, 9]: 0.11 µM

— patent publication US12448369B2 (Edgewise Therapeutics, Inc., priority 2023, dated 2025)
